Measurements as given in the supplement of paper PMC11424490.

What was measured:
NCI-H2122 = test: fitted bottom plateau of viability curve, % of DMSO control; higher = less maximal inhibition; extreme values may be limits of the assay
Protocol: (§1)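 CellTiter-Glo proliferation assay in KRAS G12C mutant NCI-H2122 (72 h), SW837 (144 h) and NCI-H358 cells in 384-well plates. Monotherapy dose response was fitted with a four-parameter curve after normalisation to DMSO controls (% of control, PoC). IC50 is the relative IC50, averaged over replicates. Bottom is the fitted lower plateau in %PoC; Max.Conc. is the top dose tested.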

SW837 = test: as above
Protocol: as §1

Row | SMILES | fitted bottom plateau of viability curve (NCI-H2122) | fitted bottom plateau of viability curve (SW837)
1 | CC(C)(C(=O)NCC(F)(F)C(F)(F)F)C(=O)N[C@@H]1C(=O)Nc2ccccc2-c2ccccc21 (top concentration tested 9999.9 nM) | 77.8% | 98.6%
2 | NC(=O)c1ccc(-c2nc(-c3ccccn3)c(-c3ccc4c(c3)OCO4)[nH]2)cc1 (top concentration tested 9999.9 nM) | 96.2% | 96.5%
3 | c1ccc(-c2nn3c(c2-c2ccnc4cc(OCCN5CCOCC5)ccc24)CCC3)nc1 (top concentration tested 9999.9 nM) | 78.1% | 90.3%
4 | CN(C)CCCC(=O)Nc1n[nH]c2nnc(-c3ccccc3)cc12 (top concentration tested 10000 nM) | 76.1% | 85.9%
5 | COc1ccc(Cn2ccc3ccc(C(=O)NO)cc32)cc1 (top concentration tested 10000 nM) | 67.3% | 99.9%
6 | On1ncc2cc(CCc3nn[nH]n3)ccc21 (top concentration tested 10000 nM) | 73.1% | 88.1%
7 | Cc1cc(Nc2nc(N[C@@H](C)c3ncc(F)cn3)ncc2Cl)[nH]n1 [AZD-1480] (top concentration tested 10000 nM) | 67% | 87.9%
8 | NC(=O)Nc1cc(-c2cccc(F)c2)sc1C(=O)N[C@H]1CCCNC1 [AZD-7762] (top concentration tested 99.882 nM) | 62.8% | 89.7%
9 | Cc1ncc([N+](=O)[O-])n1CCOC(=O)NC(Nc1ncccn1)C(Cl)(Cl)Cl (stereo not given) [Apcin] (top concentration tested 10000 nM) | 83.2% | 95.3%
10 | CCN1CCN(c2ccc(Nc3cc(N(C)C(=O)Nc4c(Cl)c(OC)cc(OC)c4Cl)ncn3)cc2)CC1 [BGJ398] (top concentration tested 1000 nM) | 78.2% | 90.4%
11 | O=C(Cc1ccccc1)Nc1nnc(CCSCCc2nnc(NC(=O)Cc3ccccc3)s2)s1 [BPTES] (top concentration tested 10000 nM) | 56.3% | 90.2%
12 | Nc1nc(Nc2ccc3c(c2)CC[C@@H](N2CCCC2)CC3)nn1-c1cc2c(nn1)-c1ccccc1CCC2 [Bemcentinib] (top concentration tested 1000.1 nM) | 70.6% | 84.4%
13 | C=C(c1ccc(C(=O)O)cc1)c1cc2c(cc1C)C(C)(C)CCC2(C)C [Bexarotene] (top concentration tested 10000 nM) | 89.9% | 96.9%
14 | CC(O)(CS(=O)(=O)c1ccc(F)cc1)C(=O)Nc1ccc(C#N)c(C(F)(F)F)c1 (stereo not given) [Bicalutamide] (top concentration tested 10000 nM) | 71.7% | 77.3%
15 | O=C(O)CCCCC(CCSCc1ccccc1)SCc1ccccc1 (stereo not given) [CPI-613] (top concentration tested 10000 nM) | 93.6% | 89.5%
16 | CCCCCOC(=O)Nc1nc(=O)n([C@@H]2O[C@H](C)[C@@H](O)[C@H]2O)cc1F [Capecitabin] (top concentration tested 50000 nM) | 75.7% | 101%
17 | C[C@H](CS)C(=O)N1CCC[C@H]1C(=O)O [Captopril] (top concentration tested 1000 nM) | 65.1% | 91.7%
18 | O=C(O)C1(C(=O)O)CCC1.[NH2-].[NH2-].[Pt+2] [Carboplatin] (top concentration tested 10000 nM) | 63.4% | 88.3%
19 | COc1cc2c(Oc3ccc4[nH]c(C)cc4c3F)ncnc2cc1OCCCN1CCCC1 [Cediranib] (top concentration tested 100.11 nM) | 70% | 90.6%
20 | N.N.[Cl][Pt][Cl] [Cisplatin] (top concentration tested 10000 nM) | 75.2% | 88.2%

Row | SMILES | fitted bottom plateau of viability curve (NCI-H2122) | fitted bottom plateau of viability curve (SW837)
21 | CC(C)(C)c1nc(-c2cccc(NS(=O)(=O)c3c(F)cccc3F)c2F)c(-c2ccnc(N)n2)s1 [Dabrafenib] (top concentration tested 1000.1 nM) | 73.8% | 93.1%
22 | C[C@@H]1C[C@H]2[C@@H]3CCC4=CC(=O)C=C[C@]4(C)[C@@]3(F)[C@@H](O)C[C@]2(C)[C@@]1(O)C(=O)CO [Dexamethasone] (top concentration tested 10000 nM) | 58.2% | 82%
23 | CNC(=O)c1ccc(N2C(=S)N(c3ccc(C#N)c(C(F)(F)F)c3)C(=O)C2(C)C)cc1F [Enzalutamide] (top concentration tested 10000 nM) | 83.9% | 93.1%
24 | CO[C@H]1C[C@@H]2CC[C@@H](C)[C@@](O)(O2)C(=O)C(=O)N2CCCC[C@H]2C(=O)O[C@H]([C@H](C)C[C@@H]2CC[C@@H](OCCO)[C@H](OC)C2)CC(=O)[C@H](C)/C=C(\C)[C@@H](O)[C@@H](OC)C(=O)[C@H](C)C[C@H](C)/C=C/C=C/C=C/1C [Everolimus] (top concentration tested 99.976 nM) | 76.4% | 95.4%
25 | Nc1nc(F)nc2c1ncn2[C@@H]1O[C@H](CO)[C@@H](O)[C@@H]1O [Fludarabine] (top concentration tested 9999.9 nM) | 71% | 59.4%
26 | C[C@]12CC[C@@H]3c4ccc(O)cc4C[C@@H](CCCCCCCCC[S+]([O-])CCCC(F)(F)C(F)(F)F)[C@H]3[C@@H]1CC[C@@H]2O (stereo not given in full) [Fulvestrant] (top concentration tested 1000 nM) | 75.9% | 91.1%
27 | CN(C)c1ccccc1CN1CCCN(Cc2ccccc2N(C)C)C1c1ccncc1 [GANT61] (top concentration tested 10000 nM) | 70.7% | 83.1%
28 | Cc1ccc(NC(=O)c2ccc(CN3CCN(C)CC3)cc2)cc1Nc1nccc(-c2cccnc2)n1 [Imatinib] (top concentration tested 1000 nM) | 71% | 95.9%
29 | CN[C@@H](C)C(=O)N[C@H](C(=O)N1CCC[C@H]1c1nc(C(=O)c2ccc(F)cc2)cs1)C1CCCCC1 [LCL161] (top concentration tested 10000 nM) | 69.3% | 86.1%
30 | Nc1cccc2c1CN(C1CCC(=O)NC1=O)C2=O (stereo not given) [Lenalidomide] (top concentration tested 10000 nM) | 84.3% | 89.9%
31 | O=C(O)c1nn(Cc2ccc(Cl)cc2Cl)c2ccccc12 [Lonidamine] (top concentration tested 10000 nM) | 77.4% | 86.4%
32 | CC[C@H](C)C(=O)O[C@H]1C[C@@H](C)C=C2C=C[C@H](C)[C@H](CC[C@@H]3C[C@@H](O)CC(=O)O3)[C@H]21 [Lovastatin] (top concentration tested 10000 nM) | 56.1% | 83.6%
33 | Cc1ccc(NC(=O)c2ccc(CN3CCN(C)CC3)cc2)cc1Nc1nc(-c2cccnc2)cs1 [Masitinib] (top concentration tested 1000.1 nM) | 79.5% | 95.6%
34 | C[C@H](Cc1ccc(O)c(O)c1)[C@@H](C)Cc1ccc(O)c(O)c1 [Masoprocol] (top concentration tested 9999.8 nM) | 71.4% | 86.2%
35 | CN(C)C(=N)NC(=N)N [Metformin] (top concentration tested 50000 nM) | 76.5% | 97.5%
36 | CN1CCN(c2ccc(-c3cccc(CN4CCOCC4)c3)cc2NC(=O)c2c[nH]c(=O)cc2C(F)(F)F)CC1 [OICR-9429] (top concentration tested 10000 nM) | 62.6% | 95.4%
37 | N[C@H]1CC[C@H](N[C@@H]2C[C@H]2c2ccccc2)CC1 [ORY-1001] (top concentration tested 49.848 nM) | 68.1% | 90.5%
38 | CCCS(=O)(=O)Nc1ccc(F)c(C(=O)c2c[nH]c3ncc(Cl)cc23)c1F [PLX4720] (top concentration tested 10000 nM) | 73.6% | 101%
39 | Cc1ccc(Nc2nccc(N(C)c3ccc4c(C)n(C)nc4c3)n2)cc1S(N)(=O)=O [Pazopanib] (top concentration tested 10000 nM) | 80.9% | 91.9%
40 | CC(C)(C)c1cc(NC(=O)Nc2ccc(-c3cn4c(n3)sc3cc(OCCN5CCOCC5)ccc34)cc2)no1 [Quizartinib] (top concentration tested 1000.1 nM) | 79.3% | 94.1%
